Entries after “also recorded” stand apart in the source; their conditions may differ.
What was measured:
[1] = Qualitative detection of prototype flavones and metabolites in rat plasma, prostate, urine and feces by UPLC-Q-Exactive Orbitrap-MS after oral aerial part of G. uralensis; settings: rats, single oral 1 g/kg extract; for Distribution of protoflavones: Plasma: mixed plasma 0.25-48 h, + not defined
Procedure: Forty-eight rats were randomly divided into four groups, namely plasma (n = 6), prostate (n = 30, there were five time points, with six individuals for each time point), excretion (n = 6) and blank (n = 6). The plasma, prostate, and excretion groups were gavaged with 1 g/kg of Glycyrrhiza uralensis sample, whereas the blank group was administered 0.5% CMC-Na. Biological samples were collected after the mice were dosed once.
The tube was placed at room temperature for 1 h; then, it was centrifuged at 4 °C (10,000 rpm, 10 min). Upper plasma of different time points was separated for 50 μL and mixed and shaken well. Mixed plasma was collected at 50 μL and the plasma samples (50 μL) were vortex-mixed with 250 μL of methanol. The solution was centrifuged at 10,000 rpm for 10 min to separate the protein from the organic phase, and then the upper supernatant was collected. Then, the supernatant was transferred and evaporated to dryness under a gentle stream of nitrogen at room temperature. The residue was reconstituted in 50 µL methanol, mixed for 1 min, and centrifuged at 10,000 rpm for 10 min. At last, 20 μL of the resulting supernatant was applied to UPLC–MS/MS analysis.
UPLC-Q-Exactive Orbitrap-MS analysis was performed on a Dionex Ultimate 3000 ultra-high performance liquid system (ThermoFisher) consisting of a binary pump, a DAD detector, a column chamber, an automatic sampler and an online degasser. The sample was separated on a Waters ACQUITY UPLC HSS T3 C18 column (2.1 mm × 100 mm, 1.8 μm), with a column temperature of 30 °C, automatic sampler temperature of 10 °C, and flow rate of 0.2 mL·min^−1. The mobile phases A and B were acetonitrile with 0.1% formic acid and aqueous solution with 0.1% formic acid, respectively. […] The injection volume of the sample was 5 μL.
The MS conditions were as follows: detection mode: positive and negative ion modes; scan range: 100–1200; resolution: 70,000; sheath gas flow rate: 40; aux gas flow rate: 15; spray voltage [kV]: 3.20; capillary temp: 320 °C; aux gas heater temp: 350 °C; AGC target: 3,000,000; maximum IT (ms): 100; sheath gas: 40/45; aux gas flow: 11/10; sweep gas: 0; S-lens RF level: 55; and aux gas heater temperature: 220 °C.

[2] = Pharmacokinetics of four flavonoids in rat plasma after oral aerial part of G. uralensis extract (HPLC-MS/MS); assay type: in vivo, Sprague Dawley (SD) rats; settings: for AUC(0-inf) / AUC(0-t) / Cmax / Tmax / half-life / MRT last / MRT inf: Sprague Dawley; for MRT last: day 31, n = 6, read-out: MRT0–t; for MRT inf: day 31, n = 6, read-out: MRT0–∞; for time at which steady state was reached: 3 h after daily oral extract 1 g/kg
Procedure: For clean-up, the plasma samples (50 μL) were vortex-mixed with 10 μL of IS and 250 μL of methanol. […] At last, 5 μL of the resulting supernatant was applied to HPLC–MS/MS analysis.
(§1) The analysis was performed on the AB SCIEX QTRAP 5500 (USA) triple quadrupole mass spectrometer, which was performed in SRM and positive and negative ionization modes. LC separation is run on XSelect HSS T3 analytical column (2.1 × 100 mm, 2.5 μm, Waters), equipped with Exion LC AD system (AB Sciex) infinite binary pump. Acetonitrile was used as solvent A and 0.1% formic acid aqueous solution was used as solvent B and the flow rate was 0.1 mL/min. Using gradient elution, the initial condition is that 90% solvent B drops to 0% B within 17 min and maintains it for 2 min, returns to the initial […] at 19.1 min, and ends an analysis at 22 min. The temperature of the column oven is maintained at 35 °C. The sample is kept at 10 °C and the injection volume is 5 μL. The MS parameters are as follows: ESI ion source temperature is 500 °C; curtain gas: 30 psi; collision-activated dissociation (CAD) gas settings: medium, ion spray voltage: −4500 V, ion gas 1 and 2: 50 psi. The data acquisition software is AB SCIEX Analyst 1.7.1. The specific parameters are as Table 8.

[3] = Prostate distribution of four flavonoids after oral aerial part of G. uralensis (HPLC-MS/MS); assay type: in vivo, Sprague Dawley (SD) rats; settings: rats, 0.5-8 h after oral extract 1 g/kg on day 31, n = 6
Procedure: as §1

[4] = Stability test of analytes in rat prostate homogenate QC samples; assay type: in vitro ADME; settings: for Stability, Mean ± S.D., 24 h at room temperature, low QC / Stability, Mean ± S.D., freeze-thaw cycles, low QC: nominal puerarin 0.100, luteolin 0.200, kaempferol 2.000, pinocembrin 2.000, n = 3; for Stability, Mean ± S.D., 24 h at room temperature, medium QC / Stability, Mean ± S.D., freeze-thaw cycles, medium QC: nominal puerarin 1.000, luteolin 5.000, kaempferol 100.000, pinocembrin 50.000, n = 3; for Stability, Mean ± S.D., 24 h at room temperature, high QC / Stability, Mean ± S.D., freeze-thaw cycles, high QC: nominal puerarin 5.000, luteolin 10.000, kaempferol 200.000, pinocembrin 100.000, n = 3; for Stability, Mean ± S.D., freeze-thaw cycles, low QC / Stability, Mean ± S.D., freeze-thaw cycles, medium QC / Stability, Mean ± S.D., freeze-thaw cycles, high QC: three freeze-thaw cycles
Procedure: All of the solutions were stored at 4℃ until analysis. Stability investigation of the four components in the plasma and prostate homogenates was performed by analyzing replicates (n = 3) of the three levels of QC samples under three different conditions. Room temperature stability was assessed after the exposure of untreated QC samples at room temperature for 24 h. Freeze and thaw stability was evaluated after three freeze (−20 °C)–thaw (room temperature) cycles.

primary liver cell model = test system: primary liver cell model; design: method as in Lu et al. [65]; settings: ref Lu et al. [65]; cited from earlier work
[5] = oral extract 1 g/kg every day, day 31, n = 6

Distribution of protoflavones: Plasma [1]	AUC(0-inf) [2, 5]	AUC(0-t) [2, 5]	Cmax [2, 5]	Tmax [2, 5]	half-life [2, 5]	MRT last ([2]; oral extract 1 g/kg every day)	MRT inf ([2]; oral extract 1 g/kg every day)	Stability, Mean ± S.D., 24 h at room temperature, low QC [4]	Stability, Mean ± S.D., 24 h at room temperature, medium QC [4]	Stability, Mean ± S.D., 24 h at room temperature, high QC [4]	Stability, Mean ± S.D., freeze-thaw cycles, low QC [4]	Stability, Mean ± S.D., freeze-thaw cycles, medium QC [4]	Stability, Mean ± S.D., freeze-thaw cycles, high QC [4]	Structure (SMILES)	concentration in prostate (ranking, in words) [3]	further results
detected														O=c1c(O[C@@H]2O[C@H](CO)[C@@H](O)[C@H](O)[C@H]2O)c(-c2ccc(O)cc2)oc2cc(O)cc(O)c12 [Astragalin]		
detected														O=c1c(O[C@@H]2O[C@H](CO)[C@H](O)[C@H](O)[C@H]2O)c(-c2ccc(O)c(O)c2)oc2cc(O)cc(O)c12 [Hyperoside]		
detected														O=c1c(O[C@@H]2O[C@H](CO)[C@@H](O)[C@H](O)[C@H]2O)c(-c2ccc(O)c(O)c2)oc2cc(O)cc(O)c12 [Isoquercitrin]		
	23.8 ± 0.86 ng·h/mL	18.8 ± 1.18 ng·h/mL	1.27 ± 0.06 ng/mL	4 ± 0.17 h	19 ± 1.46 h	20.1 ± 0.84 h	31.8 ± 1.22 h	2.000 ± 0.265 μg·mL^−1/μg·g^−1	99.133 ± 3.557 μg·mL^−1/μg·g^−1	201.667 ± 3.215 μg·mL^−1/μg·g^−1	1.833 ± 0.058 μg·mL^−1/μg·g^−1	96.667 ± 2.082 μg·mL^−1/μg·g^−1	202.333 ± 2.082 μg·mL^−1/μg·g^−1	O=c1c(O)c(-c2ccc(O)cc2)oc2cc(O)cc(O)c12 [Kaempferol]	highest concentration; also recorded: kaempferol > pinocembrin > luteolin > puerarin; also recorded: particularly high	
	51.6 ± 1.98 ng·h/mL			0.87 ± 0.05 h	31.1 ± 1.17 h	20.7 ± 1.91 h	44 ± 1.72 h	0.194 ± 0.005 μg·mL^−1/μg·g^−1	4.963 ± 0.118 μg·mL^−1/μg·g^−1	9.900 ± 0.458 μg·mL^−1/μg·g^−1	0.213 ± 0.031 μg·mL^−1/μg·g^−1	4.833 ± 0.058 μg·mL^−1/μg·g^−1	10.433 ± 0.551 μg·mL^−1/μg·g^−1	O=c1cc(-c2ccc(O)c(O)c2)oc2cc(O)cc(O)c12 [Luteolin]	kaempferol > pinocembrin > luteolin > puerarin	time at which steady state was reached [2]: 9 days; AUC0–t [2, 5]: 35.01 ± 0.81 ng·h/mL; Phase II metabolites, share of the dosage (primary liver cell model): 54%
detected														COc1ccc(-c2coc3cc(O[C@@H]4O[C@H](CO)[C@@H](O)[C@H](O)[C@H]4O)ccc3c2=O)cc1 [Ononin]		
	23.8 ± 1.29 ng·h/mL	21.8 ± 0.73 ng·h/mL	1.18 ± 0.06 ng/mL	1.5 ± 0.05 h	13.2 ± 0.72 h	19.1 ± 0.82 h	23.3 ± 0.83 h	1.923 ± 0.076 μg·mL^−1/μg·g^−1	51.000 ± 3.000 μg·mL^−1/μg·g^−1	102.000 ± 2.646 μg·mL^−1/μg·g^−1	1.867 ± 0.153 μg·mL^−1/μg·g^−1	51.333 ± 1.528 μg·mL^−1/μg·g^−1	102.333 ± 2.887 μg·mL^−1/μg·g^−1	O=C1C[C@@H](c2ccccc2)Oc2cc(O)cc(O)c21 [Pinocembrin]	kaempferol > pinocembrin > luteolin > puerarin	time at which steady state was reached [2]: 5 days
detected														C[C@@H]1O[C@@H](OC[C@H]2O[C@@H](Oc3c(-c4ccc(O)c(O)c4)oc4cc(O)cc(O)c4c3=O)[C@H](O)[C@@H](O)[C@@H]2O)[C@H](O)[C@H](O)[C@H]1O [Rutin]		
detected														O=c1cc(-c2ccc(O)cc2)oc2c([C@@H]3O[C@H](CO)[C@@H](O)[C@H](O)[C@H]3O)c(O)cc(O)c12 [Vitexin]		

Structure (SMILES)	Distribution of protoflavones: Plasma [1]	AUC(0-inf) [2, 5]	AUC(0-t) [2, 5]	Cmax [2, 5]	Tmax [2, 5]	half-life [2, 5]	MRT last ([2]; oral extract 1 g/kg every day)	MRT inf ([2]; oral extract 1 g/kg every day)	Stability, Mean ± S.D., 24 h at room temperature, low QC [4]	Stability, Mean ± S.D., 24 h at room temperature, medium QC [4]	Stability, Mean ± S.D., 24 h at room temperature, high QC [4]	Stability, Mean ± S.D., freeze-thaw cycles, low QC [4]	Stability, Mean ± S.D., freeze-thaw cycles, medium QC [4]	Stability, Mean ± S.D., freeze-thaw cycles, high QC [4]	concentration in prostate (ranking, in words) [3]	further results
O=c1c(-c2ccc(O)cc2)coc2c([C@@H]3O[C@H](CO)[C@@H](O)[C@H](O)[C@H]3O)c(O)ccc12 [Puerarin]	detected	242 ± 2.45 ng·h/mL	238 ± 23.4 ng·h/mL	23.8 ± 1.05 ng/mL	0.5 ± 0.04 h		14.4 ± 1.21 h	15.1 ± 1.71 h		1.097 ± 0.138 μg·mL^−1/μg·g^−1	4.940 ± 0.056 μg·mL^−1/μg·g^−1	0.100 ± 0.005 μg·mL^−1/μg·g^−1		5.057 ± 0.224 μg·mL^−1/μg·g^−1	kaempferol > pinocembrin > luteolin > puerarin	Distribution of four representative flavonoids and metabolites: Plasma ([1]; + not defined (detected)): detected; t1/2 [2, 5]: 6.43 ± 0.20 h
